In article PMC10854894, “A New Benzo[6,7]oxepino[3,2-b] Pyridine Derivative Induces Apoptosis in Canine Mammary Cancer Cell Lines” (Animals : an Open Access Journal from MDPI, 2024) one finds IC50 data, which are given here for 2 compounds.

Holding throughout (assay): MTT cell proliferation/cytotoxicity assay
Holding throughout (format): cell-based, canine
Holding throughout (details): Canis lupus familiaris, read-out: Half-Maximal Inhibitory Concentration (IC50)

One assay has as its system REM134 cells. Here is the method: (§1) The cytotoxic effects of the three BZOP derivatives were studied via the 3-(4,5-Dimethyl-2-thiazolyl)-2,5-diphenyl-2H-tetrazolium bromide (MTT) assay. The REM134, CMGT071020, and MDCK cell lines were seeded at a density of 5 × 10^3 cells/well in 96-well plates and allowed to grow for 24 h. They were then treated with the three BZOP derivatives at various concentrations (0–300 µM) for 24 or 48 h, whereas cells treated with the culture medium containing 0.1% dimethyl sulfoxide (DMSO) were used as a negative control as the compounds were dissolved in DMSO. Subsequently, the cells were incubated with 10 µL of an MTT solution (Sigma, St. Louis, MO, USA) for 4 h. After the incubation with MTT solution, 100 µL of a solubilization solution was added to dissolve water-insoluble purple formazan crystals, and the plate was incubated overnight at 37 °C in 5% CO2. The absorbance of the formazan solution was measured using a Synergy H1 hybrid multi-mode microplate reader (BioTek, Winooski, VT, USA) at 570 nm. The experiment was conducted with four replicates, and the relative cell viability (%) of the treated cells was expressed as a percentage relative to the untreated control cells, which were considered to have 100% viability.

The subject of another assay is MDCK cells. Here is the method: as §1
The next assay concerns CMGT071020 cells. Here is the method: as §1

The structures appear in SMILES notation. Like-named read-outs stand apart in the source and are kept apart here.

On to `[O-][n+]1cccc2c1C=Cc1cccnc1O2` [OPDOb, oxepino(2,3-b:6,7-b’)dipyridine 1-oxide], for which the IC50 is over 300 µM in the assay on REM134 cells (REM134, 24 h); 172 µM with REM134 cells (REM134, 48 h); over 300 µM in the assay on MDCK cells (24 h); over 300 µM with MDCK cells (48 h); over 300 µM with CMGT071020 cells (CMGT071020, 24 h); over 300 µM in the assay with CMGT071020 cells (CMGT071020, 48 h).
Regarding `[O-][n+]1cccc2c1C=Cc1ccncc1O2` [OPDOc, oxepino(3,2-b:7,6-c’)dipyridine 1-oxide], the IC50 with REM134 cells (REM134, 24 h) is over 300 µM; with REM134 cells (REM134, 48 h), over 300 µM; in the assay with MDCK cells (24 h), over 300 µM; with MDCK cells (48 h) it was over 300 µM; in the assay on CMGT071020 cells (CMGT071020, 24 h), over 300 µM; in the assay with CMGT071020 cells (CMGT071020, 48 h) it was over 300 µM.
